The target in assay [1] is Neuronal acetylcholine receptor subunit alpha-7 (Rattus norvegicus, UniProt Q05941). As to the kind of experiment: Displacement of [3H]alpha-Bungarotoxin from alpha-7 nAChR in rat brain cortex membranes. The format is cell membranes, Membrane. On the technique in general: Displacement assays read how much labelled ligand stays bound in the presence of the test substance.

In assay [2] the target is T1, Adrenergic receptor alpha-2 (Rattus norvegicus, UniProt P22086+P19328+P22909).
T1 sequence (P22086 whole entry): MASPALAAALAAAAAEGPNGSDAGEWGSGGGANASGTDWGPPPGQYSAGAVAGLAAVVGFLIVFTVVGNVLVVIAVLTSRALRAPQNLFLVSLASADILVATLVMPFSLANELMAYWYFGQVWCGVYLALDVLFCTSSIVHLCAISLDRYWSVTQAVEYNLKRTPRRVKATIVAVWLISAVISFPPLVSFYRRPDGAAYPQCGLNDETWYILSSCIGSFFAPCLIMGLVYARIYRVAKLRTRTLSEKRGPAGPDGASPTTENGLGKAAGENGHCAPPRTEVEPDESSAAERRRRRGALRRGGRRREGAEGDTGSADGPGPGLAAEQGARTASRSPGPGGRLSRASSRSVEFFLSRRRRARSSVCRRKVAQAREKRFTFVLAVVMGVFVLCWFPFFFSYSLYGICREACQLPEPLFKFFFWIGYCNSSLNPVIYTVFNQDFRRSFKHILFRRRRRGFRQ
T1 sequence (P19328 whole entry): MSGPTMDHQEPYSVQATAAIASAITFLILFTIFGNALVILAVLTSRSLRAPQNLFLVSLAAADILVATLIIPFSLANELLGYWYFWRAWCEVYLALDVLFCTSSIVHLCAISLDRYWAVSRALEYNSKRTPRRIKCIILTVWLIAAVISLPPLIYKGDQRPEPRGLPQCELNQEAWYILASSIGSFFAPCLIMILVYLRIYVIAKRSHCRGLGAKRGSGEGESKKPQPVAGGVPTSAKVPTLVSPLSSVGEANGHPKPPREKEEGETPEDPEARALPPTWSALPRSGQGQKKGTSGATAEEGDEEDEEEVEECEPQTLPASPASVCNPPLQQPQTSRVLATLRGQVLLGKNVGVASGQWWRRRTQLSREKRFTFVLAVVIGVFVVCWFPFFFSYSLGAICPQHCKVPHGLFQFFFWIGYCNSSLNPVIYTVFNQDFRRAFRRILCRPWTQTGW
T1 sequence (P22909 whole entry): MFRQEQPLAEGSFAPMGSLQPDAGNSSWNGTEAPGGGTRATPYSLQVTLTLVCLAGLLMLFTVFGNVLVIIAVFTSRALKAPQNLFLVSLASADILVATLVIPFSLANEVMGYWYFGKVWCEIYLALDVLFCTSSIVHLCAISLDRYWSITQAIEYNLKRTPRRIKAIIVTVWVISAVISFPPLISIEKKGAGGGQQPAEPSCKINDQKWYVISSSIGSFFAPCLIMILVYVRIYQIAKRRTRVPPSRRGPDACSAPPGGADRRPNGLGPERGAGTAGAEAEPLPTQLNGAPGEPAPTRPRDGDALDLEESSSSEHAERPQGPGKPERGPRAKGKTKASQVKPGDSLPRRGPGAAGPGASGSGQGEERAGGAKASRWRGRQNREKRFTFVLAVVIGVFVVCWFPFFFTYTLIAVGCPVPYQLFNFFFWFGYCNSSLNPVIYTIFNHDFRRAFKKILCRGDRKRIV
Nature of the assay: Displacement of [3H]RS 79948-197 from rat cortex adrenergic alpha-2 receptor.

Assay [3] concerns the target Neuronal acetylcholine receptor; alpha4/beta2 (Rattus norvegicus, UniProt P09483+P12390). Nature of the assay: Displacement of [3H]epibatidine from alpha-4-beta-2 nAChR in rat brain cortex membrane. The format is cell membranes.

Sequence of Neuronal acetylcholine receptor; alpha4/beta2 (P09483 whole entry): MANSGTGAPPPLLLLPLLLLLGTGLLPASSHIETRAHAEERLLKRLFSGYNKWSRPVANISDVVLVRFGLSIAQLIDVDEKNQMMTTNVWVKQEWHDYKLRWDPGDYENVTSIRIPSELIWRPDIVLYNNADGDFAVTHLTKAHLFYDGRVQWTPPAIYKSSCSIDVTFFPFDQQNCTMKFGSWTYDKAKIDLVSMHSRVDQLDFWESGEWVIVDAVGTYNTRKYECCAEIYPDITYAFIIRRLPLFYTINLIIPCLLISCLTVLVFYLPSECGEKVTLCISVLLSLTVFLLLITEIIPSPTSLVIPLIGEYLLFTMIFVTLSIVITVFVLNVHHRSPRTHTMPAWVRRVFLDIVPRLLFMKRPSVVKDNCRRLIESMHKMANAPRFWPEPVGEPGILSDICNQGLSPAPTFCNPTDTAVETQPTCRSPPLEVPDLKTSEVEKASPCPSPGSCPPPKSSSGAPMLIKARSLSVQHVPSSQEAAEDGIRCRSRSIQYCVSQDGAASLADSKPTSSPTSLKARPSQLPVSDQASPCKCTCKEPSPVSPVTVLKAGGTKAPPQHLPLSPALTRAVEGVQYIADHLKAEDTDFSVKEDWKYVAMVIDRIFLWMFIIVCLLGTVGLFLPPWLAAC
Sequence of Neuronal acetylcholine receptor; alpha4/beta2 (P12390 whole entry): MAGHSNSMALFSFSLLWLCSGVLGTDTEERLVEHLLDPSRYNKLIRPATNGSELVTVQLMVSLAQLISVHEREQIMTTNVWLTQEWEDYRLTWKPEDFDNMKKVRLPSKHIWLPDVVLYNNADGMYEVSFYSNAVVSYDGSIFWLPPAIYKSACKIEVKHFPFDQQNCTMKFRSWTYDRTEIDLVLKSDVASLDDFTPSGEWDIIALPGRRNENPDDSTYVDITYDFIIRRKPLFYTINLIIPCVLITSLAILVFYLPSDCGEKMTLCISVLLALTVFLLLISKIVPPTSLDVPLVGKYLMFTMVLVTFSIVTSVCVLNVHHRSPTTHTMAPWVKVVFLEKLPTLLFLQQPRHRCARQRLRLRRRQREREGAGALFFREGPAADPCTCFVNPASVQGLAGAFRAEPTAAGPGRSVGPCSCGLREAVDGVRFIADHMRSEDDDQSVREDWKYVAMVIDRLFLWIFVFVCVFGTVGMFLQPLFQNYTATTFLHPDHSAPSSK
Sequence of Neuronal acetylcholine receptor subunit alpha-7 (Q05941 whole entry): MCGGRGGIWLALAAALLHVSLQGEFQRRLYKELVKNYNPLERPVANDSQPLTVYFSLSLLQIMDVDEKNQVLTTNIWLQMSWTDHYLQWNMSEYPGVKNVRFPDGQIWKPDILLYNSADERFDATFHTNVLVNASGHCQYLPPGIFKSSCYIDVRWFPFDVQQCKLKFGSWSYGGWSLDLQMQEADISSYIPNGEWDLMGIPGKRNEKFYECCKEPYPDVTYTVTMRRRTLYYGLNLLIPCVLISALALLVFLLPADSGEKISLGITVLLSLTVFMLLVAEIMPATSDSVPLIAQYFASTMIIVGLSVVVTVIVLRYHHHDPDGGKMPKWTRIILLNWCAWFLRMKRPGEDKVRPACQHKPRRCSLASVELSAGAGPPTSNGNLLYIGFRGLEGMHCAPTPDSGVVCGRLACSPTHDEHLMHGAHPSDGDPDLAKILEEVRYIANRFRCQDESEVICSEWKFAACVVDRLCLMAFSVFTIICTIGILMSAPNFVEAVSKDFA

Turning to `CN1CCC[C@H]1[C@@H]1COc2ccccc2O1.Cl`, the Ki – broadly, a dissociation constant, usually derived from enzyme kinetics or from competition with a known ligand – is 12 µM in assay [1], 0.77 µM in assay [2] and 0.62 µM in assay [3].

For the compound `CN1CCC[C@@H]1[C@H]1COc2ccccc2O1.Cl`, the values for the Ki in assay [1], in assay [2] and in assay [3] were 45 µM, 0.47 µM and 2.57 µM, respectively.

As to `CN1CCC[C@@H]1[C@@H]1CNC(=O)O1`, the Ki in assay [1] turned out to be 338 µM; in assay [3] it was 80 µM.

As to `CN1CCC[C@H]1[C@H]1CNC(=O)O1`, the Ki came out at 117 µM in assay [1] and 62 µM in assay [3].

(Values after ChEMBL document CHEMBL1139700 (Bioorg Med Chem Lett, 2006).)
